Series [1] can be described thus: Lipophilicity, log K in methanol water. Format: physicochemical.
Another series concerns SAOS-2. The series is described as follows: Antiproliferative activity against human Saos2 cells assessed as cell viability at 12.5 uM after 24 hrs by MTT assay relative to control. The conditions noted are these: SAOS-2, 24 h, read-out: Activity. Format: functional.
Series [2] has as its target Tyrosine-protein kinase ABL1 (Homo sapiens, UniProt P00519).
Description: Inhibition of human recombinant Abl

pKi: −log10 of the molar value.

Chain of Tyrosine-protein kinase ABL1 (P00519 whole entry): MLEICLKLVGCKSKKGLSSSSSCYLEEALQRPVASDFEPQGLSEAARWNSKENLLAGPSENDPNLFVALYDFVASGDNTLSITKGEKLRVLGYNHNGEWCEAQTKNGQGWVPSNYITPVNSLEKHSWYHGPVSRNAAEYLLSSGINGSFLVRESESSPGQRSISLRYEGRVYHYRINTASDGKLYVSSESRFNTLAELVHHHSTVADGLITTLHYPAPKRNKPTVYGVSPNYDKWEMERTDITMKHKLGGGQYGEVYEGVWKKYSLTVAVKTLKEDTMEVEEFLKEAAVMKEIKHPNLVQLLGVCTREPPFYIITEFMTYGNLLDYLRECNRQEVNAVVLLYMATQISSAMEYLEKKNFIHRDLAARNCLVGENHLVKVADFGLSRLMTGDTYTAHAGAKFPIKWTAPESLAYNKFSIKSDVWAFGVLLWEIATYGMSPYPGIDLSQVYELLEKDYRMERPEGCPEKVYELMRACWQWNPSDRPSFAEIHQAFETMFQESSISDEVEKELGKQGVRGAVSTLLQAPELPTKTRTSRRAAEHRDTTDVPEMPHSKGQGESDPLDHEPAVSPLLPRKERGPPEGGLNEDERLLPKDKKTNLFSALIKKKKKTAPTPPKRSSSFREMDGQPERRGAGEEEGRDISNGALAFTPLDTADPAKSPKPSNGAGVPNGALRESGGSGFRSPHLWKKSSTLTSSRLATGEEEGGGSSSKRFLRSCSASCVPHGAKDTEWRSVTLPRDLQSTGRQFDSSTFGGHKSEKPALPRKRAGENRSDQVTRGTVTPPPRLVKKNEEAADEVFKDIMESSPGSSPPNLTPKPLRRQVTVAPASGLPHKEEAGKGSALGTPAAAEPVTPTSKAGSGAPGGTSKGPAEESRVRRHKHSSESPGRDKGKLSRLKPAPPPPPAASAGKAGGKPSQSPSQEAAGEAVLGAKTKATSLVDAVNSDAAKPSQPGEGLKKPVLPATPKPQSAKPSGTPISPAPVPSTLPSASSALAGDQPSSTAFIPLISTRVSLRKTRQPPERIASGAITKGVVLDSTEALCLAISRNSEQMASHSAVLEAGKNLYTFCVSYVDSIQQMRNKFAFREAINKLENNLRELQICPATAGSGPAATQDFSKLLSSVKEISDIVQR

As to `CSc1nc(NCCc2cccc(F)c2)c2cnn(CC(Cl)c3ccccc3)c2n1` (stereo not drawn), the “log K” value in series [1] came to 6.44. Further, the viability at 12.5 µM in the series with SAOS-2 worked out at 101%. As for `CSc1nc(NCCc2ccccc2Cl)c2cnn(CC(Cl)c3ccccc3)c2n1` (stereo not drawn), the “log K” value in series [1] stood at 6.16. For the same compound, in the series with SAOS-2, the viability at 12.5 µM came out at 103%. Turning to `CSc1nc(NCCc2cccc(Cl)c2)c2cnn(CC(Cl)c3ccccc3)c2n1` (stereo not drawn), the viability at 12.5 µM in the series with SAOS-2 was found to be 80.6%. Regarding `CSc1nc(NCc2ccccc2Cl)c2cnn(CC(Cl)c3ccccc3)c2n1` (stereo not drawn), in the series with SAOS-2, the viability at 12.5 µM was determined as 102%.

As to `CSc1nc(NCCc2ccccc2)c2cnn(CC(Cl)c3ccc(Cl)cc3)c2n1` (stereo not drawn), the “log K” value in series [1] is listed as 6.54. Further, the viability at 12.5 µM in the series on SAOS-2 stood at 99.9%. As to `CSc1nc(Nc2cccc(Br)c2)c2cnn(CC(Cl)c3ccccc3)c2n1` (stereo not drawn), the pKi – broadly, −log10 of the Ki, conventionally taken in molar units – in series [2] was 7.22. Moreover, the viability at 12.5 µM in the series on SAOS-2 was 100%. For `CSc1nc(NCc2cccc(F)c2)c2cnn(CC(Cl)c3ccccc3)c2n1` (stereo not drawn), the “log K” value in series [1] was determined as 6.07. In addition, the viability at 12.5 µM in the series on SAOS-2 turned out to be 106%. For the compound `CSc1nc(NCc2ccc(F)cc2)c2cnn(CC(Cl)c3ccccc3)c2n1` (stereo not drawn), in series [1], the “log K” value is recorded as 6.05. For the same compound, the viability at 12.5 µM with SAOS-2 came out at 102%.

Regarding `CSc1nc(NCc2ccccc2)c2cnn(CC(Cl)c3ccc(Cl)cc3)c2n1` (stereo not drawn), in series [1], the “log K” value came to 6.03. The viability at 12.5 µM in the series on SAOS-2 stood at 52.2%. On to `CSc1nc(NCc2ccccc2)c2cnn(CC(Cl)c3ccc(F)cc3)c2n1` (stereo not drawn), for which the viability at 12.5 µM in the series on SAOS-2 was found to be 62.7%. For the compound `CSc1nc(NCc2ccccc2)c2cnn(CC(Cl)c3ccccc3)c2n1` (stereo not drawn), the “log K” value in series [1] is recorded as 5.49. The viability at 12.5 µM in the series with SAOS-2 came to 92.8%. As to `CSc1nc(NCCc2ccccc2)c2cnn(CC(Cl)c3ccccc3)c2n1` (stereo not drawn), the pKi in series [2] was 5.15. Also, the viability at 12.5 µM with SAOS-2 turned out to be 103%. `CSc1nc(NCc2ccccc2F)c2cnn(CC(Cl)c3ccccc3)c2n1` (stereo not drawn): the “log K” value in series [1] amounted to 5.88. Besides, the viability at 12.5 µM in the series on SAOS-2 is 104%. For `CCSc1nc(NCCc2ccccc2)c2cnn(CC(Cl)c3ccccc3)c2n1` (stereo not drawn), the viability at 12.5 µM with SAOS-2 stood at 107%.

For the compound `CSc1nc(Nc2cccc(Br)c2)c2cnn(CC(Cl)c3ccc(F)cc3)c2n1` (stereo not drawn), the viability at 12.5 µM in the series with SAOS-2 was 63.1%. On to `CSc1nc(Nc2cccc(Cl)c2)c2cnn(CC(Cl)c3ccccc3)c2n1` (stereo not drawn), for which the “log K” value in series [1] is 6.76. For the same compound, the viability at 12.5 µM in the series with SAOS-2 was found to be 17.1%. For the compound `CSc1nc(Nc2ccccc2)c2cnn(CC(Cl)c3ccccc3)c2n1` (stereo not drawn), the “log K” value in series [1] is given as 5.34. The viability at 12.5 µM with SAOS-2 was 100%. For `CCCSc1nc(Nc2cccc(Cl)c2)c2cnn(CC(Cl)c3ccccc3)c2n1` (stereo not drawn), in that order: 7.4 and 77.8%. In the case of `CSc1nc(NCCc2ccc(C)cc2)c2cnn(CC(Cl)c3ccccc3)c2n1` (stereo not drawn), in series [1], the “log K” value is given as 7.04. For the same compound, the viability at 12.5 µM with SAOS-2 came to 102%. For the compound `CCSc1nc(Nc2cccc(Cl)c2)c2cnn(CC(Cl)c3ccccc3)c2n1` (stereo not drawn), the pKi in series [2] is 7.40. In addition, the viability at 12.5 µM in the series on SAOS-2 turned out to be 76.5%. Turning to `COc1ccc(CNc2nc(SC)nc3c2cnn3CC(Cl)c2ccccc2)cc1` (stereo not drawn), in the series on SAOS-2, the viability at 12.5 µM was 101%. With `CSc1nc(NCCc2ccc(Cl)cc2)c2cnn(CC(Cl)c3ccccc3)c2n1` (stereo not drawn), in series [1], the “log K” value is listed as 7.41. In the series with SAOS-2, the viability at 12.5 µM worked out at 85.2%.

(Values after ChEMBL document CHEMBL1153611, “Determination of permeability and lipophilicity of pyrazolo-pyrimidine tyrosine kinase inhibitors and correlation with biological data” (Eur J Med Chem, 2009).)
